Results published in patent US9012651B2, “TRPV3 modulators” (AbbVie Inc., priority 2011, dated 2015).

Molecular target: human TRPV3 receptors (Homo sapiens (Human), UniProt Q8NET8)
Assay: Calcium flux assay (FLIPR TETRA), inhibition of the 2-APB response
Type: cell-based
Settings: recombinant HEK293 cells stably expressing TRPV3, Calcium-4 dye, 2-APB at its EC80
In short: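 Responses are given relative to the maximal 2-APB signal in the absence of compound, using peak fluorescence over baseline. Measured by FLIPR Tetra calcium flux in stable human and mouse TRPV3 HEK293 cells after 90-120 min dark dye incubation.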

Chain of human TRPV3 receptors (Q8NET8 whole entry): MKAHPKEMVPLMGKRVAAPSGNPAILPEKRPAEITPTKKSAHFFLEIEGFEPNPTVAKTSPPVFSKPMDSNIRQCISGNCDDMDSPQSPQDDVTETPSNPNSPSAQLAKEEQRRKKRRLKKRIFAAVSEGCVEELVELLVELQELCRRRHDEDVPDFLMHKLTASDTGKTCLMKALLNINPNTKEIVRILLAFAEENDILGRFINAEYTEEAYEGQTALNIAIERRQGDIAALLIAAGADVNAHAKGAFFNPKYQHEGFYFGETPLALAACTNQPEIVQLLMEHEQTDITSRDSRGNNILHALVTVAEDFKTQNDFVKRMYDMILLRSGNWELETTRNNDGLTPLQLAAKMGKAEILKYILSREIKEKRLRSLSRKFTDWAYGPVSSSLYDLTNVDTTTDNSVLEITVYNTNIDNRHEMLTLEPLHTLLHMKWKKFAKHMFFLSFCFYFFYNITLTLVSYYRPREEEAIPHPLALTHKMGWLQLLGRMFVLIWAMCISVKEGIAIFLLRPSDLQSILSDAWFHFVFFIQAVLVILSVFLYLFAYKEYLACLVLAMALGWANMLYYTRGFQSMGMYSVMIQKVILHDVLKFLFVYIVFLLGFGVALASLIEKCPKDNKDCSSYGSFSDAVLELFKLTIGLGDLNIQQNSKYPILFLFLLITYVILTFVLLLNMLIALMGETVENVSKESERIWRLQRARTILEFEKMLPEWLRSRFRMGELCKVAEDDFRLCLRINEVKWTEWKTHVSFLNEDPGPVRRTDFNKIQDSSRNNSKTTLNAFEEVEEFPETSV

Row | Structure (SMILES) | IC50 [µM]
1 | C=C(c1ccc(F)cc1)c1ccc(F)c(CN[C@@H](CO)C(C)C)n1 [Example 125, (2R)-2-[({3-fluoro-6-[1-(4-fluorophenyl)ethenyl]pyridin-2-yl}methyl)amino]-3-methylbutan-1-ol] | 1.63
2 | CC(C)[C@H](CO)NCc1nc(-c2ccc(C(=O)N3CCCC3)cc2)ccc1F [Example 276, {4-[5-fluoro-6-({[(2R)-1-hydroxy-3-methylbutan-2-yl]amino}methyl)pyridin-2-yl]phenyl}(pyrrolidin-1-yl)methanone] | 10.9
3 | COCC(CO)NCc1ccnc(-c2ccc(S(=O)(=O)C(F)(F)F)cc2)n1 (stereo not shown) [Example 210, 3-methoxy-2-{[(2-{4-[(trifluoromethyl)sulfonyl]phenyl}pyrimidin-4-yl)methyl]amino}propan-1-ol] | 18.5
4 | CC(C)[C@H](CO)NCc1nc(C2=CCC(C(F)(F)F)CC2)ccc1F (stereo partly drawn) [Example 223, (2R)-2-[({3-fluoro-6-[4-(trifluoromethyl)cyclohex-1-en-1-yl]pyridin-2-yl}methyl)amino]-3-methylbutan-1-ol] | 0.08
5 | CC(C)[C@H](CO)NCc1nc(-c2ccc(OCC(F)(F)F)cc2)ccc1F [Example 53, (2R)-2-[({3-fluoro-6-[4-(2,2,2-trifluoroethoxy)phenyl]pyridin-2-yl}methyl)amino]-3-methylbutan-1-ol] | 0.46
6 | CC(C)[C@H](CO)NCc1nc(-c2ccc(F)c(Cl)c2)ccc1F [Example 294, (2R)-2-({[6-(3-chloro-4-fluorophenyl)-3-fluoropyridin-2-yl]methyl}amino)-3-methylbutan-1-ol] | 0.12
7 | CC(C)[C@H](CO)NCc1nc(-c2cnc(N(C)C)nc2)ccc1F [Example 261, (2R)-2-[({6-[2-(dimethylamino)pyrimidin-5-yl]-3-fluoropyridin-2-yl}methyl)amino]-3-methylbutan-1-ol] | 0.75
8 | OCC1(NCc2nc(-c3ccc(C(F)(F)F)cc3)ccc2F)CCCC1 [Example 80, {1-[({3-fluoro-6-[4-(trifluoromethyl)phenyl]pyridin-2-yl}methyl)amino]cyclopentyl}methanol] | 0.29
9 | CCC[C@H](CO)NCc1nc(-c2ccc(C(F)(F)F)nc2)ccc1F [Example 87, (2R)-2-({[5-fluoro-6′-(trifluoromethyl)-2,3′-bipyridin-6-yl]methyl}amino)pentan-1-ol] | 3.1
10 | OCC1(NCc2ccnc(-c3ccc(C(F)(F)F)cc3)n2)CCCCC1 [Example 134, {1-[({2-[4-(trifluoromethyl)phenyl]pyrimidin-4-yl}methyl)amino]cyclohexyl}methanol] | 11
11 | CC(C)[C@H](CO)NCc1cccc(-c2ccc(C(F)(F)F)nc2)n1 [Example 69, (2R)-3-methyl-2-({[6′-(trifluoromethyl)-2,3′-bipyridin-6-yl]methyl}amino)butan-1-ol] | 3.72
12 | CC(C)[C@H](CO)NCc1nc(C#Cc2ccccc2)ccc1F [Example 289, (2R)-2-({[3-fluoro-6-(phenylethynyl)pyridin-2-yl]methyl}amino)-3-methylbutan-1-ol] | 0.13
13 | CC(C)[C@@H](CO)NCc1nc(-c2ccc(C(F)(F)F)nc2)ccc1F [Example 35, (2S)-2-({[5-fluoro-6′-(trifluoromethyl)-2,3′-bipyridin-6-yl]methyl}amino)-3-methylbutan-1-ol] | > 20
14 | CC(C)[C@H](CO)NCc1nc(C2CCCCCC2)ccc1F [Example 206] | 1.23
15 | CC(C)[C@H](CO)NCc1ccnc(-c2ccc(C(F)(F)F)cc2)n1 [Example 91, (2R)-3-methyl-2-[({2-[4-(trifluoromethyl)phenyl]pyrimidin-4-yl}methyl)amino]butan-1-ol] | > 20
16 | CC(C)[C@H](CO)NCc1nc(-c2ccc(F)cn2)ccc1F [Example 36, (2R)-2-{[(5,5′-difluoro-2,2′-bipyridin-6-yl)methyl]amino}-3-methylbutan-1-ol] | 0.95
